Laboratory results taken from patent publication US11166894B2, “Shampoo compositions comprising a chelant” (The Procter & Gamble Company, priority 2016, dated 2021).
Entries after “also recorded” stand apart in the source; their conditions may differ.

Key:
[1] = log P, n-octanol/water partition coefficient; assay type: physicochemical
From the text: The term log P is the n-octanol/water partition coefficients of the material.
The copper to be removed is inside the hair and the chelant needs to penetrate inside hair and form a strong copper-chelant complex. This copper-chelant complex needs to be water soluble and thus easily removed during the rinsing process. […] These are log P, the octanol/water partitioning coefficient, and the molecular weight of the chelant. Both are related to the ability of the chelant to penetrate into hair and also form a water soluble copper-chelant complex

[2] = log of formation constant of complex with copper; cited from earlier work
[3] = Copper on hair after repeat shampoo wash cycles (ICP-OES), versus shampoo without chelant; conditions: for Copper Removing Performance from Shampoo: clarifying shampoo containing the chelant, 20 cycles, copper content of hair compared to shampoo without the chelant; for reduction/removal of copper on hair compared to shampoo without chelant (in words): 10 shampoo cycles; for reduction/removal of copper on hair compared to control shampoo (in words): 20 shampoo cycles, clarifying shampoo; for reduces copper by: shampoo composition containing 0.1 wt % chelant, 20 cleaning cycles, compared to shampoo without the chelant
Method: The copper removing performance of the shampoo composition is determined by treating hair with clarifying shampoo containing the corresponding chelant for 20 cycles and comparing the copper content of the hair compared to the same treatment using shampoo without the chelant.
(§1) All testing are performed on colored hair switches (see Method of Measurement of Copper on Hair below) weighing approximately […] and having a length of approximately 6 inches. The hair switches are commercially available from IHIP (International Hair Importers). Three hair switches per sampoo composition are used. An amount of […] of shampoo is spread via a syringe onto separate hair switch. That is, the dosage is 0.10 g of shampoo per g of hair. Each application consists of adding shampoo to the hair, milking for 30 seconds followed by rinsing for 30 seconds. Shampoo is then reapplied (0.1 g/g), milked for 30 seconds and rinsed for 30 seconds. Excess water is squeezed from the hair switches and left to air dry or treated with a rinse-off conditioner and/or a leave-on treatment composition. This protocol is repeated for a number of times/cycles (as indicated in the tables below, which describe the details of hair treatments).
The following test method is used to assess the ability of the compositions and regimens to remove copper from the hair and to inhibit copper deposition onto the hair.
Hair switches are colored once with an oxidative hair colorant. An extra blonde shade is used for the testing. The hair switches are washed for 10 or 20 repeat wash cycles in tap water containing 7 grains per gallon water hardness (Ca/Mg) and 0.06 μg/g copper ions. Each wash cycle consists of two applications of 0.1 g/g a shampoo to the hair switches. Each application consists of adding shampoo to the hair, milking for 30 secs followed by rinsing for 30 secs. Shampoo is then reapplied 0.1 g/g, milked for 30 secs, rinsed for 30 secs and then dried in a heat box (60° C.) until dry.
Samples of 100 mg of hair are digested overnight with 2 ml of high purity concentrated nitric acid. The digestive mixture also contains 150 μL of 100 μg/g Yttrium internal standard (Inorganic Ventures, Christianburg, Va., USA). Following digestion, samples are heated to 70-80° C. for one hour, cooled to room temperature and diluted to 15 mL with deionized water. Copper content of the hair switches is determined by inductively coupled plasma atomic spectroscopy (ICP-OES)). For each leg, 3 different samples are analyzed.
In order to minimize the variability of the resulting copper content on hair that is related to (a) lot-to-lot viariability due to hair switches and (b) day-to-day variability of the water used during shampoo and conditioner treatments, a single lot of hair switches is used for each experimental series and a separate control experiment/treatment is run for each experimental series (see below).

[4] = Copper on hair after regimen cycles of shampoo, rinse-off conditioner and leave-on treatment (ICP-OES); conditions: 20 conditioning shampoo/rinse-off conditioner/leave-on treatment regimen cycles
Method: as §1
The following test method is used to assess the ability of the compositions and regimens to remove copper from the hair and to inhibit copper deposition onto the hair. […]
Samples of 100 mg of hair are digested overnight with 2 ml of high purity concentrated nitric acid. […] Copper content of the hair switches is determined by inductively coupled plasma atomic spectroscopy (ICP-OES)). For each leg, 3 different samples are analyzed. […]

| Compound | logP [1] | Log KML Cu [2] | Copper Removing Performance from Shampoo [3] [%] | reduction/removal of copper on hair compared to control shampoo (in words) [3] | other results |
| --- | --- | --- | --- | --- | --- |
| NCCCNCCCNCCCN [1,5,9,13-Tetraazatridecane] | -2.1 | 17.1 | 15 |  |  |
| NCCNCCNCCN [2,3-Triethylenetetramine] | -2.3 | 20.1 | 70 | effective removal of copper from hair; also recorded: more effective treatements | removal of copper from hair compared to control regimen (in words) [4]: effective removal of copper from hair; reduction/removal of copper on hair compared to shampoo without chelant (in words) [3]: significant reduction of copper content on hair |
| NCCNCCNCCNCCN [2,4-Tetraethylenepentamine] | -2.7 | 22.8 | 60 | more effective treatements |  |
| CC(O)CN(CCN(CC(C)O)CC(C)O)CC(C)O (stereo not shown) [Ethylenedinitrilotetrapropan-2-ol] |  | 9.8 | 30 | effective removal of copper from hair | Log P [1]: −0.2 |
| O=C(O)CN(CCO)CC(=O)O [N-(2-hydroxyethyl)iminodiacetic acid] |  |  |  |  | reduces copper by [3]: 30% |
| CC(O)CN(CCN(CC(C)O)CC(C)O)CCN(CC(C)O)CC(C)O (stereo not shown) [Pentrol] |  |  |  |  | Log P [1]: −0.2 |
| OCCN(CCO)CCN(CCO)CCN(CCO)CCN(CCO)CCN(CCO)CCO [Tetraethylenepentaamine-(1-EO)] | -2.9 |  |  |  |  |
| NCCN(CCN)CCN [Tris(2-aminoethyl)amine] | -2.2 | 18.8 | 45 |  | reduction/removal of copper on hair compared to shampoo without chelant (in words) [3]: effective removal of copper from hair |
| O=C(O)CNCC(=O)O [iminodiacetic acid] |  |  |  |  | reduces copper by [3]: 40% |
